From PMC6100073, “Activation of Anthracene Endoperoxides in Leishmania and Impairment of Mitochondrial Functions” (Molecules : A Journal of Synthetic Chemistry and Natural …, 2018)
Where two headings read alike, the source gives them in different places.

What was measured:
LtP = test: O2 consumption of LtP (OxoPlates); type: cell-based, Leishmania tarentolae; conditions: 140 × 10^6 LtP/mL, 40 min; for influence on LtP respiration (oxygen consumption rate): 6.25–200 µM
Method: Oxygen consumption rates of LtP treated with AcEPs were measured using round-bottomed OxoPlates (OP96U, Precision Sensing GmbH, Regensburg, Germany). An aliquot of BHI culture medium was transferred to an open Erlenmeyer flask and was stirred on a magnetic stirrer for 30 min at 25 °C to saturate it with air (aBHI). Another aliquot of BHI culture medium was mixed with approximately 50 mg of the reducing agent sodium dithionite in a tightly closed falcon tube to remove the dissolved oxygen (dBHI). Aliquots of 200 µL of both calibration media were distributed to 6 wells each of the first row of an OxoPlate. To prevent oxygen exchange with the environment, 70 µL of paraffin oil were layered on top of each well containing liquid. The plate was then incubated in the dark for 15 min at 25 °C for equilibration. Then the fluorescence of both calibration media was measured at a microplate reader (Perkin Elmer Enspire, Germany) in a dual kinetic mode using an excitation wavelength of 540 nm for both of the dyes, emission wavelengths of 650 nm for the indicator dye, and 590 nm for the reference dye. The ratio of both intensities (IR) was calculated for each well and averaged giving the two calibration constants k0 or k100. From the second row on, each well was filled with 50 µL of aBHI. The third row was provided with extra 50 µL of aBHI. The respective amounts of the anthracene derivatives (Ac, AQ, AcEP1117, AcEP1118, AcEP1129, AcEP1130) were added and mixed properly. A serial dilution was performed by transferring 50 µL of the mixture in five subsequent 1:2 steps. LtP (140 × 10^6 cells/mL) were suspended in aBHI and aliquots of 150 µL were transferred to each well giving a maximal final concentration of the AcEPs of 200 µM, declining with onward 1:2 dilution steps. On top of each well, 70 µL of paraffin oil was added. The fluorescence intensity of each well was determined in 5 min intervals over 40 min. Each concentration was measured in quadruplicates. The oxygen concentration was calculated using the following equation (PreSens–Precision Sensing GmbH):O2 [µM] = 100 × (k0/IR − 1) / (k0/k100 − 1) × 2.83
The slope of the change of the oxygen concentrations over time was calculated giving the oxygen consumption rate [µM/min] for each well. The value obtained for aBHI was subtracted to eliminate the influence of the medium. The rate was finally normalized to the oxygen consumption rate of the wells that did contain cells but no test compounds.

J774 macrophages = test: Resazurin viability assay in J774 macrophages; type: cell-based; conditions: Mus musculus, read-out: IC50 (µM) Mean ± SD J774
Method: The murine macrophage cell line J774A.1 (mouse, ATCC, TIB-67™) was cultivated in Dulbecco’s Modified Eagle Medium (DMEM) (high glucose, 1.5 g/L NaHCO3) supplemented with 25,000 IU/L penicillin, 25 mg/L streptomycin, and 10% FCS (heat-inactivated) in 50 mL TubeSpin bioreactors. The tubes were kept in an incubator at 37 °C and 5% CO2 on a roller culture apparatus (5 rpm). The cells were passaged twice a week, diluting them in a ratio of 1:10. The macrophages were used until passage 30. To determine the cell count, the cell suspension was resuspended and diluted 1:2 with PBS. After fixation of the cells by mixing the cell suspension 1:1 with a formaldehyde solution (2%, v/v), aliquots of the resulting suspension were transferred into a standard Neubauer chamber (VWR, Austria) and counted manually using a light microscope (Motic BA310, Austria) at a magnification of 400×.
LtP (2 × 10^6 cells/mL) in a mixture of YEM and PBS (1:1, v/v) containing 25,000 U/L penicillin, 25 mg/L streptomycin, and 6 µM hemin (YEM/PBS) were prepared. Aliquots of 200 µL of this suspension were distributed in 96-well plates. Control rows containing YEM/PBS (no activity) and with untreated LtP (100% activity) were also loaded on the plate. To the wells of third rows, compounds (leading to a final vehicle concentration of max. 2% dimethyl sulfoxide (DMSO) in the wells) were added. Subsequently, five 1:5 serial dilution steps were performed. The plates were incubated at 26 °C for 48 h. Following the incubation, 50 µL of a resazurin solution in PBS were added to each well, giving a final concentration of 20 µM. After 4 h of incubation, the fluorescence was measured at 560 nm excitation and 590 nm emission using a plate reader (Perkin Elmer Enspire, Germany). The resazurin assays with J774 cells were performed in analogy to the LtP resazurin assays. Aliquots of a J774 cell suspension in DMEM supplemented with 25,000 U/L penicillin, 25 mg/L streptomycin, and 10% FCS (heat-inactivated), giving a final cell concentration of 10^5 cells/mL, were distributed in the wells of the 96-well microplates. The cells were incubated for 24 h (37 °C, 5% CO2) to allow attachment. Then the medium was discarded and non-adherent cells were removed with 200 µL PBS per well. After the addition of DMEM, the compounds were added, and a serial dilution was performed. Control rows with DMEM (no activity) and with untreated J774 cells (100% activity) were also included. […] Then the addition of resazurin and the measurement of fluorescence were carried out in analogy to the viability assays performed in LtP.
Calculations were carried out using Microsoft Excel (Microsoft). The graphs were created using Origin 6.1 (OriginLab Corporation, Northampton, MA, USA). The half maximal inhibitory concentrations (IC50) were determined from non-linear concentration–response curves using a four-parameter logistic model and expressed as the mean ± standard deviation (SD). Statistically significant differences of p <0.05 were identified using Students t-test.

[1] = resazurin assay, endpoint at 48 h, 10^5 J774/mL

Row | SMILES | influence on LtP respiration (oxygen consumption rate) (LtP) | IC50 (J774 macrophages; [1]) [µM] | IC50 (J774 macrophages; J774, 48 h) [µM] | concentration from which oxygen consumption is significantly decreased (LtP; p < 0.05 vs 0 µM) [µM]
1 | CC12OOC(C)(c3ccccc31)c1ccccc12 [AcEP1118, 9,10-dimethyl-9,10-dihydro-9,10-epidioxidoanthracene] | no considerable influence on the LtP respiration up to concentrations of 200 µM | 4.34 ± 1.91 |  | 
2 | CCc1ccc2c(c1)C1OOC2c2ccccc21 (centres unmarked) [AcEP1130, 2-ethyl-9,10-dihydro-9,10-epidioxidoanthracene] | significant decline in the oxygen consumption rate at higher concentrations | 7.82 ± 0.47 |  | 
3 | O=C1c2ccccc2C(=O)c2ccccc21 [AQ, anthraquinone, reference compound] | no considerable influence on the LtP respiration up to concentrations of 200 µM | 117 ± 24.3 |  | 
4 | c1ccc2cc3ccccc3cc2c1 [Ac, anthracene] | no considerable influence on the LtP respiration up to concentrations of 200 µM |  | > 400 | 
5 | c1ccc2c(c1)C1OOC2c2ccccc21 [AcEP1117, 9,10-dihydro-9,10-epidioxidoanthracene] | no considerable influence on the LtP respiration up to concentrations of 200 µM | 43.8 ± 36.1 |  | 
6 | N=C(N)c1ccc(OCCCCCOc2ccc(C(=N)N)cc2)cc1 [Pen, pentamidine, reference compound] |  | 14.4 ± 6.48 |  | 
7 | CC12OOC(c3ccccc31)c1ccccc12 [AcEP1129, 9-methyl-9,10-dihydro-9,10-epidioxidoanthracene] | significant decline in the oxygen consumption rate at higher concentrations | 0.9 ± 0.28 |  | 25
